Laboratory results as given in patent publication US20220324909A1, “THERAPEUTIC PEPTIDES” (COHBAR, INC., priority 2019, published 2022).
Non-standard residues stand in square brackets, D forms with d. Primed or numbered codes have the meaning given here. No end group written: not given here. PEG12(3) = not defined here

Experiments:
MDA-MB-231 cells [1] = assay: Caspase 3/7 activity in MDA-MB-231 cells (Caspase-Glo 3/7); assay type: cell-based, human
Description: The effect of the peptides on cell death/survival can be assessed using a caspase-3 assay. Peptides were dissolved with DMSO at 10 mM stock. […] Staurosporine (Selleckchem) was dissolved with DMSO at 1 mM stock. Caspase-Glo 3/7 Assay Reagent was purchased from Promega (Madison, Wis.). MDA-MB-231 human breast cancer cell line was purchased from American Type Culture Collection (Manassas, Va.). MDA-MB-231 cells were grown in DMEM Medium supplemented with 10% FBS. 100 μg/ml penicillin and 100 μg/ml streptomycin were added to the culture medium. […] 25 μl of Caspase-Glo 3/7 Assay Reagent was added to each well and incubated at 37° C., 5% CO2 for 1 hour. Luminescence for each sample well on the plate was measured by Envision 2104 Multilabel Reader (PerkinElmer, Santa Clara, Calif.). Activity was calculated relative to DMSO control.

MDA-MB-231 cells [2] = assay: Cell viability, MTS assay in MDA-MB-231 cells; assay type: cell-based, human
Description: Test compounds and reference compound staurosporine (Selleckchem) were all dissolved with DMSO at 10 mM stock. […] Activity was calculated relative to DMSO control. […] Cell viability was 3% of the DMSO control value for Staurosporine (10 μM).

MCF-7 cells = assay: Cell viability, MTS assay in MCF-7 cells
Description: Peptides and reference compound staurosporine (Selleckchem) were dissolved with DMSO at 10 mM stock. CellTiter 96@ AQueous One Solution Reagent (MTS assay reagent) was purchased from Promega (Madison, Wis.). MCF-7 human breast cancer cell line was purchased from American Type Culture Collection (Manassas, Va.). MCF-7 cells were grown in EMEM Medium supplemented with 10% FBS and 0.01 mg/ml human recombinant insulin. 100 μg/ml penicillin and 100 μg/ml streptomycin were added to the culture medium. Cells were incubated with test peptides at 10 μM at 37° C. in a humidified atmosphere of 5% CO2 and 95% air for 72 hours. 5 μl of CellTiter 96@ AQueous One Solution Reagent (MTS assay reagent) was added to each well and incubated at 37° C., 5% CO2 for 5 hours. Absorbance at 492 nm was recorded by Envision 2104 Multilabel Reader. Treatment with DMSO alone was used as the cell viability activity control. The relative standard deviation of the DMSO control was 3%.

3T3-L1 adipocytes = assay: Free fatty acid levels in cultured 3T3-L1 mouse adipocytes (Example 4, 25 μM); conditions: for Free Fatty Acid Levels, Percent of Control Value: peptide 25 μM, 20-22 h then 3 h with isoproterenol 1 nM, relative to isoproterenol control
Description: Mouse 3T3-L1 adipocytes were seeded at 3,000 cells per well in 96-well plates in Pre-adipocyte Medium (Zen-Bio, Durham, N.C.) and grown to confluence at 37° C. in a humidified atmosphere of 5% CO2/95% air. Two days after confluence, cells were placed in Adipocyte Differentiation Medium (Zen-Bio, Durham, N.C.) and cultured for three additional days at 37° C. in a humidified atmosphere of 5% CO2/95% air. The culture media was then replaced with Adipocyte Maintenance Medium (Zen-Bio) and the cells maintained for an additional 9-12 days at 37° C. in a humidified atmosphere of 5% CO2/95% air with partial medium replacement every other day. Following 12-15 days' differentiation, test peptides were added to a final concentration of 25 μM and incubated for 20-22 hours in Adipocyte Maintenance Medium. After 20-22 hours, isoproterenol (1 nM) was added to all wells except untreated controls and test peptides were replenished. Cells were incubated for a further 3 hours in Assay Buffer (Zen-Bio). Free fatty acid concentrations in the media were determined using a Free Fatty Acid Assay Kit (Zen-Bio) according to the manufacturer's instructions using a plate reader (540 nm). Absorbance values were corrected for untreated background and expressed relative to isoproterenol treated cells. Treatment with isoproterenol (1 nM) alone was used as the free fatty acid level stimulatory control.

C2C12 cells [3] = assay: ATP levels in cultured C2C12 cells (CellTiter-Glo); assay type: cell-based, mouse; conditions: lovastatin 10 μM, positive control
Description: The effect of the peptides on cellular metabolism can be assessed using an assay of ATP levels in cultured cells such as mouse myoblast cells. Peptides were initially prepared as 10 mM stock in DMSO, diluted to 1 mM in H2O, and used at a final concentration of 10 μM (0.1% DMSO). […] Lovastatin was prepared as 10 mM stock in 70% Ethanol and used at final concentration of 10 μM containing 0.1% DMSO. CellTiter-Glo® Assay kit was purchased from Promega (Madison, Wis.). […] C2C12 cells were grown in DMEM medium supplemented with 20% FBS with 100 IU/ml penicillin and 100 μg/ml streptomycin. […] C2C12 cells were seeded at 800 cells per well on 96-well plates. […] ATP levels were determined using a CellTiter-Glo Assay kit according to the manufacturer's instructions. Luminescence for each sample well on the plate was measured using a Cytation 3 plate reader (BioTek, Winooski, Vt.). Activity was calculated relative to 0.1% DMSO treated control. The relative standard deviation of the result for the 0.1% DMSO treated control was <5%. […] ATP levels for treatment with lovastatin (10 μM) were <50% of the 0.1% DMSO treated control value.

C2C12 cells [4] = assay: Cell proliferation in C2C12 cells (Cyquant DNA dye binding); assay type: cell-based, mouse; conditions: lovastatin 10 μM, growth arrest control
Description: The effect of the peptides on cell proliferation was assessed using a DNA dye binding assay in cultured cells such as mouse myoblast cells. Peptides were initially prepared as 10 mM stock in DMSO, diluted to 1 mM in H2O, and added at a final concentration of 10 μM (0.1% DMSO). Lovastatin was used as a growth arrest control at final concentration of 10 μM. […] C2C12 cells were grown in DMEM supplemented with 20% FBS with 100 IU/ml penicillin and 100 μg/ml streptomycin. […] C2C12 cells were seeded at 800 cells per well on 96-well plates. […] Cell proliferation was determined using Cyquant Direct Nucleic Acid Stain (Thermo Fisher Scientific, Waltham, Mass.) according to the manufacturer's instructions. Fluorescence for each sample well on the plate was measured using a Cytation 3 plate reader at Ex/Em=495/535 nm (BioTek, Winooski, Vt.). Activity was calculated relative to 0.1% DMSO untreated control. The relative standard deviation for the lovastatin control was <27%. The cell proliferation for the lovastatin control was <25% of the value for untreated control.

C2C12 cells [5] = assay: Caspase 3/7 activity in C2C12 cells; assay type: cell-based, mouse; conditions: staurosporine 100 nM, positive control
Description: The effect of the peptides on cell death/survival can be assessed using a caspase-3/7 assay in cultured cells such as mouse myoblast cells. Peptides were initially prepared as 10 mM stock in DMSO, diluted to 1 mM in H2O, and used at a final concentration of 10 μM (0.1% DMSO). […] Staurosporine (Abcam, Cambridge, Mass.) was dissolved at 10 mM in DMSO as a stock solution. Caspase-Glo 3/7 Assay Reagent was purchased from Promega (Madison, Wis.). C2C12 cell line was purchased from American Type Culture Collection (Manassas, Va.). C2C12 cells were grown in DMEM supplemented with 20% FBS with 100 IU/ml penicillin and 100 μg/ml streptomycin. […] C2C12 cells were seeded at 4,000 cells per well on 96-well plates. […] Caspase 3/7 activity was determined using a Caspase-Glo 3/7 Assay kit according to the manufacturer's instructions. Luminescence for each sample well on the plate was measured using a Cytation 3 plate reader (BioTek, Winooski, Vt.). Activity was calculated relative to 0.1% DMSO control.

C2C12 cells [6] = assay: Cellular ROS levels induced by TBHP in C2C12 cells (DCFDA); assay type: cell-based, mouse; conditions: sulforaphane 10 μM, protective control
Description: The protective or synergistic effect of the peptides on cellular levels of reactive oxygen species (ROS) induced by oxidative stress can be assessed using an assay of ROS in cultured cells such as mouse myoblasts exposed to a suitable oxidative stress. Peptides were initially prepared as 10 mM stock in DMSO, diluted to 1 mM in H2O, and added at a final concentration of 10 μM (0.1% DMSO). […] TBHP was used at final concentration of 100 μM. Sulforaphane at final concentration of 10 μM was used as a protective control against TBHP induced ROS production. […] C2C12 cells were grown in DMEM supplemented with 20% FBS with 100 IU/ml penicillin and 100 μg/ml streptomycin. […] C2C12 cells were seeded at 7,500 cells per well on 96-well plates. […] After 18-20 hours of incubation the cells were loaded with DCFDA for 45 min. TBHP at 100 μM was then added to the appropriate wells for 1 hour. ROS activity was determined using a DCFDA Cellular ROS Detection Assay kit (Abcam, Cambridge, Mass.) according to the manufacturer's instructions. Fluorescence in each sample well on the plate was measured using a Cytation 3 plate reader at Ex/Em=485/535 nm (BioTek, Winooski, Vt.). Activity was calculated relative to TBHP control. The relative standard deviation of the sulforaphane control was <20%. The ROS level produced by the sulforaphane control in the presence of TBHP was 52% of the TBHP control.

Male DIO mice = assay: Metabolic parameters in diet induced obese (DIO) mice, Example 20; assay type: in vivo, mouse; conditions: N = 8
Description: Male C57BL/6 mice were maintained on a high fat diet for 18 weeks to develop diet induced obesity. Animals were randomized to treatment groups based on blood glucose levels and body weight. The peptides of the invention were administered to groups of male DIO mice once or twice daily by intraperitoneal injection at a dose of 5 mg/kg/dose for 8 to 10 days (N=8 animals per treatment group). Additional groups of male DIO mice (n=8) received vehicle (water) alone administered once or twice daily by intraperitoneal injection. Body weight, blood glucose levels and food intake were monitored. Body mass distribution (fat vs lean) was determined by quantitative whole body NMR prior to dosing and at the end of dosing.

3T3-L1 mouse adipocytes [7] = assay: Free fatty acid levels in 3T3-L1 mouse adipocytes (Example 12, 10 μM); assay type: cell-based; conditions: insulin 100 nM, positive control
Description: The effect of the peptides on fatty acid metabolism can be assessed using an assay of free fatty acid levels in cultured cells such as mouse adipocytes. Peptides were initially prepared as 10 mM stock in DMSO, diluted to 1 mM in H2O, and used at a final concentration of 10 μM (0.1% DMSO). […] Insulin at 100 nM was added to control wells.

3T3-L1 mouse adipocytes [8] = assay: Free fatty acid levels in cultured 3T3-L1 mouse adipocytes and insulin dependence (Example 17); assay type: cell-based; conditions: insulin 10 nM, positive control
Description: The effect of the peptides on fatty acid metabolism can be assessed using an assay to monitor free fatty acid levels produced by cultured cells such as mouse adipocytes. […] Following 3 h incubation, conditioned medium from each well was transferred to a fresh 96-well plate. […] Absorbance values were expressed as percent control activity relative to 0.1 nM isoproterenol treated cells (no insulin) for 10 μM peptide alone or 0.25 nM insulin treated cells (with insulin) for 10 μM peptide in presence of 0.25 nM insulin. […] Data are presented as averages values from 2-3 independent experiments with each data point performed in triplicate.

H4-IIE cells = assay: Glucose production in cultured H4-IIE cells and insulin dependence; assay type: cell-based, rat; conditions: insulin 800 μM, modest inhibitor control
Description: The effect of the peptides on glucose homeostasis can be assessed using an assay to monitor glucose production by cultured cells such as rat hepatocytes. […] Following 24 h incubation, conditioned medium from each well was transferred to a fresh 96-well plate. Glucose concentrations in the medium were determined using a Glucose Assay kit (Abcam; Cambridge, Mass.) according to the manufacturer's instructions; absorbance measured using a Cytation 3 plate reader at 570 nm (BioTek, Winooski, Vt.). […] Untreated cells were used as reference for maximal glucose production. […] Insulin at 800 μM was used as a modest inhibitor glucose production. […] Data are presented as averages values from 2-4 independent experiments with each data point performed in triplicate.

[9] = staurosporine 10 μM, positive control
[10] = 5 mg/kg/dose QD intraperitoneal, 10 days
[11] = 5 mg/kg/dose BID intraperitoneal, 8 days

For 2 (MRRIIGIVFQCLCGL) [compound 2], the “Caspase 3/7 Activity, Percent of Control Activity” value (MDA-MB-231 cells [1]; peptide 10 μM, 18 hours, relative to DMSO control) was 62%, the “MTS Assay, Percent of Control Activity” value (MDA-MB-231 cells [2]; 72 hours, relative to DMSO control, concentration not given) was 79% and the “MTS Assay, Percent of Control Activity” value (MCF-7 cells; peptide 10 μM, 72 hours, relative to DMSO control) was 67%. The “Free Fatty Acid Levels, Percent of Control Value” (from here on “Free Fatty Acid Levels, Percent”) (3T3-L1 adipocytes) was 97%.
In the case of 3 (RRIIGIVFQCLCGL) [compound 3], the “Free Fatty Acid Levels, Percent” value (3T3-L1 adipocytes) is reported as 89%.
In the case of 4 (RRIIGIVFQCLCG) [compound 4], the “Free Fatty Acid Levels, Percent” value (3T3-L1 adipocytes) is reported as 100%.
5 (RRIIGIVFQCLC) [compound 5] was tested, and the “Free Fatty Acid Levels, Percent” value (3T3-L1 adipocytes) was 115%.
For `CC[C@H](C)C(=O)O[C@H]1C[C@@H](C)C=C2C=C[C@H](C)[C@H](CC[C@@H]3C[C@@H](O)CC(=O)O3)[C@H]21` [lovastatin, reference compound], the “ATP levels, % of 0.1% DMSO treated control value” (C2C12 cells [3]) was under 50% and the “Cell proliferation, % of value for untreated control” value (C2C12 cells [4]) was under 25%.
In the case of `CN[C@@H]1C[C@H]2O[C@@](C)([C@@H]1OC)n1c3ccccc3c3c4c(c5c6ccccc6n2c5c31)C(=O)NC4` [staurosporine, reference compound], the “Caspase activity, % of background-corrected DMSO control value” (MDA-MB-231 cells [1]; staurosporine 0.05 nM, positive control) is reported as 130%, the “Cell viability, % of DMSO control value” (MDA-MB-231 cells [2]; [9]) is reported as 3% and the “Caspase 3/7 activity, % of background-corrected DMSO control value” (C2C12 cells [5]) is reported as 670%. For the same molecule, the “Cell viability, % of background corrected DMSO control value” (MCF-7 cells; [9]) was under 5%.
In the case of `C[S+]([O-])CCCCN=C=S` (stereo not shown) [sulforaphane, reference compound], the “ROS level in the presence of TBHP, % of TBHP control” value (C2C12 cells [6]) is reported as 52%.
In the case of “(PEG12)KRRIIGIVFQCLCG(dA) ([PEG12(3)]KRRIIGIVFQCLCG[dA]; cysteine pairing not given here) [SEQ ID NO: 42]”, the “Difference from Vehicle Control: Decrease from Baseline in Blood Glucose” value (Male DIO mice; [10]) is reported as -10.7 mg/dL and the “Difference from Vehicle Control: Decrease from Baseline in Body Weight” value (Male DIO mice; [10]) is reported as −2.94%.
With “(PEG12)KRRMMGMVFQCLCG(dA) (KRRMMGMVFQCLCGA; N-terminal PEG12; C-terminal D-alanine; (1)..(1) PEG12; (15)..(15) d-Ala) [SEQ ID NO: 20]” the “Difference from Vehicle Control: Decrease from Baseline in Blood Glucose” value (Male DIO mice; [10]) was -0.75 mg/dL, the “Difference from Vehicle Control: Decrease from Baseline in Body Weight” value (Male DIO mice; [10]) was −3.59% and the “Difference from Vehicle Control: Decrease from Baseline in Fat Mass” value (Male DIO mice; [10]) was -1.78 g.
For “RRMMGMVEQSLCG(dA) (RRMMGMVEQSLCG[dA]) [SEQ ID NO: 38]”, the “Difference from Vehicle Control: Decrease from Baseline in Blood Glucose” value (Male DIO mice; [10]) was -24.1 mg/dL and the “Difference from Vehicle Control: Decrease from Baseline in Body Weight” value (Male DIO mice; [10]) was −3.12%.
With “RRMMGMVFQCLCG(dA) (RRMMGMVFQCLCG[dA]; cysteine pairing not given here) [SEQ ID NO: 8]” the “Difference from Vehicle Control: Decrease from Baseline in Blood Glucose” value (Male DIO mice; [11]) was -14.3 mg/dL, the “Difference from Vehicle Control: Decrease from Baseline in Body Weight” value (Male DIO mice; [11]) was −5.66% and the “Difference from Vehicle Control: Decrease from Baseline in Fat Mass” value (Male DIO mice; [11]) was -2.15 g.
“RRMMGMVFQSLCG(dA) (RRMMGMVFQSLCG[dA]) [SEQ ID NO: 15]” was tested, and the “Difference from Vehicle Control: Decrease from Baseline in Blood Glucose” value (Male DIO mice; [10]) was -3.38 mg/dL, the “Difference from Vehicle Control: Decrease from Baseline in Body Weight” value (Male DIO mice; [10]) was −4.97% and the “Difference from Vehicle Control: Decrease from Baseline in Fat Mass” value (Male DIO mice; [10]) was -2.19 g.
In the case of insulin [reference compound], the “Free fatty acid levels, % of isoproterenol control value” (from here on “Free fatty acid levels, %”) (3T3-L1 mouse adipocytes [7]) is reported as under 5%, the “Free fatty acid levels, %” value (3T3-L1 mouse adipocytes [8]) is reported as under 5% and the “Glucose levels, % of untreated control value” (H4-IIE cells) is reported as 20-50%. The “Free fatty acid levels, %” value (3T3-L1 adipocytes; insulin 100 nM, positive control) was under 5%.
